Results reported in ChEMBL document CHEMBL5465560, “Selectivity Literature for EUbOPEN Chemogenomic Library” (2024).

How the values were obtained:
[1] = molecular target: Histone-lysine N-methyltransferase 2A (Homo sapiens) (UniProt Q03164); assay: Selectivity interaction (Human bromodomain panel (DSF assay)) EUB0000233b MLL
[2] = molecular target: T1, Dual specificity protein kinase TTK (Homo sapiens) (UniProt P33981); assay: Selectivity interaction (KinomeScan (DiscoverX)) EUB0000229b TTK; details: at 10 µM
T1 sequence (whole entry): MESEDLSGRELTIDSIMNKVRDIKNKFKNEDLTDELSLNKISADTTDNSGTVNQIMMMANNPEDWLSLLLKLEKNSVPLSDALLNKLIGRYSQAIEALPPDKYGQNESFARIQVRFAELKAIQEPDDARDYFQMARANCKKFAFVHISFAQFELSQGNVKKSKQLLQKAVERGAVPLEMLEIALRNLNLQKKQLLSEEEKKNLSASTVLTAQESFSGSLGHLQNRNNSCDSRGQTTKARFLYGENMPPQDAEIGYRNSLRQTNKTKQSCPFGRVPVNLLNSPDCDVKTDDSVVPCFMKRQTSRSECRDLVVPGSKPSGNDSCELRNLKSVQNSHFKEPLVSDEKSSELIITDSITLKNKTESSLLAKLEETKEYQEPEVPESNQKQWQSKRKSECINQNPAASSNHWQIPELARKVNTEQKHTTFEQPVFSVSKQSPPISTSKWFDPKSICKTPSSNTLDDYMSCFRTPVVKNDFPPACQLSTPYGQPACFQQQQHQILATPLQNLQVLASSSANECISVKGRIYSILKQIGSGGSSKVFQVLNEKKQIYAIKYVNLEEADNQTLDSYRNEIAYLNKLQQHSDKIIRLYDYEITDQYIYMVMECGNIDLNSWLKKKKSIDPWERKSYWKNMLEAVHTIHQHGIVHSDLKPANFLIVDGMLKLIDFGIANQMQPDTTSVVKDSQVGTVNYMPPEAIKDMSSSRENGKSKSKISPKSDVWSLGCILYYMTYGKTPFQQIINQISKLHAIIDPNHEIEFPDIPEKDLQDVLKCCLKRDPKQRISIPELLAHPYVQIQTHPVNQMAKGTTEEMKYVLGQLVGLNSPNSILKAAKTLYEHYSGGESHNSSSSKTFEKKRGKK

[3] = molecular target: Serine/threonine-protein kinase 25 (Homo sapiens) (UniProt O00506); assay: Selectivity interaction (KinomeScan (DiscoverX)) EUB0000229b STK25; details: at 10 µM
Chain of Serine/threonine-protein kinase 25 (Homo sapiens) (O00506 whole entry, looked up): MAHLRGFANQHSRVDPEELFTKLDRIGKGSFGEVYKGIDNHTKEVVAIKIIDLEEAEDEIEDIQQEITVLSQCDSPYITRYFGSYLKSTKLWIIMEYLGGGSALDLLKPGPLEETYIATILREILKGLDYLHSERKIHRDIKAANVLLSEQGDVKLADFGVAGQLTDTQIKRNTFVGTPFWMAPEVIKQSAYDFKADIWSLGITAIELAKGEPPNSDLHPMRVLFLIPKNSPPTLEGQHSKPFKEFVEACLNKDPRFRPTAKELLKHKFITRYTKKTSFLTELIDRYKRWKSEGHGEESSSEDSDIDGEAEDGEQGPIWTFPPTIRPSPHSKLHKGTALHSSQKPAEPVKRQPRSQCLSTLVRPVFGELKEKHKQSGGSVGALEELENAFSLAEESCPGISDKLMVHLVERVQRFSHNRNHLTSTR

[4] = molecular target: T2, Rhodopsin kinase GRK7 (Homo sapiens) (UniProt Q8WTQ7); details: at 10 µM
T2 sequence (whole entry): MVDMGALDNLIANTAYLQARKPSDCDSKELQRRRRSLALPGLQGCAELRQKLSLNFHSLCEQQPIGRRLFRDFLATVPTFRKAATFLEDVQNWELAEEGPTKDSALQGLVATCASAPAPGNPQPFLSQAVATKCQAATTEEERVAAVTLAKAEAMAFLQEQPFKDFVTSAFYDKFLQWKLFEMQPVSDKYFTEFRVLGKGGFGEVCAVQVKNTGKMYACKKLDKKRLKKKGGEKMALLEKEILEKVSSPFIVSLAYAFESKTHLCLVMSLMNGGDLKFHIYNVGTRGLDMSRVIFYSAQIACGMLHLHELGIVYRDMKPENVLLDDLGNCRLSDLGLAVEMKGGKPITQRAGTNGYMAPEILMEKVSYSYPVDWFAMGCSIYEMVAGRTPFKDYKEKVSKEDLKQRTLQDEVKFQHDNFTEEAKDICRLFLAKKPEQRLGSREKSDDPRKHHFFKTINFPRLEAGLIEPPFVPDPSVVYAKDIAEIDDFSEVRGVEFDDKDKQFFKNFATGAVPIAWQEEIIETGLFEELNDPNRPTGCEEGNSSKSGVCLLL

[5] = molecular target: T3, Activin receptor type-1 (Homo sapiens) (UniProt Q04771); details: at 10 µM
T3 sequence (whole entry): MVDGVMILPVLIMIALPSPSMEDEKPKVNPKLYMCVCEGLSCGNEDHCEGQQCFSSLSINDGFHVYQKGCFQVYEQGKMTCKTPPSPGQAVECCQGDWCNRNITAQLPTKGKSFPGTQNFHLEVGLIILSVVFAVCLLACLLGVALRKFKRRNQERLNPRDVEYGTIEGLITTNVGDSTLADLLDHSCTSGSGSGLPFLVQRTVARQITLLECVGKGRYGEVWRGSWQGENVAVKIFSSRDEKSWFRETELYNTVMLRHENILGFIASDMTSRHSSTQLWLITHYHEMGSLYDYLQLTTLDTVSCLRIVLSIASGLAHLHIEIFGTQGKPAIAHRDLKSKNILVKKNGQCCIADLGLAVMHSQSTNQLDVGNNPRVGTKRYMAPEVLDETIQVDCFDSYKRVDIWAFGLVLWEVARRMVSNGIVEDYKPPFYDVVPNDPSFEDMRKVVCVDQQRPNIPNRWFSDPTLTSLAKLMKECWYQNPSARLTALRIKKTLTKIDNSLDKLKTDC

[6] = molecular target: Calcium/calmodulin-dependent protein kinase type 1G (Homo sapiens) (UniProt Q96NX5); assay: Selectivity interaction (KinomeScan (DiscoverX)) EUB0001619a CAMK1G; details: at 1 µM
[7] = molecular target: T4, Activin receptor type-1B (Homo sapiens) (UniProt P36896); assay: Selectivity interaction (KinomeScan (DiscoverX)) EUB0000607a ACVR1B; details: at 10 µM
T4 sequence (whole entry): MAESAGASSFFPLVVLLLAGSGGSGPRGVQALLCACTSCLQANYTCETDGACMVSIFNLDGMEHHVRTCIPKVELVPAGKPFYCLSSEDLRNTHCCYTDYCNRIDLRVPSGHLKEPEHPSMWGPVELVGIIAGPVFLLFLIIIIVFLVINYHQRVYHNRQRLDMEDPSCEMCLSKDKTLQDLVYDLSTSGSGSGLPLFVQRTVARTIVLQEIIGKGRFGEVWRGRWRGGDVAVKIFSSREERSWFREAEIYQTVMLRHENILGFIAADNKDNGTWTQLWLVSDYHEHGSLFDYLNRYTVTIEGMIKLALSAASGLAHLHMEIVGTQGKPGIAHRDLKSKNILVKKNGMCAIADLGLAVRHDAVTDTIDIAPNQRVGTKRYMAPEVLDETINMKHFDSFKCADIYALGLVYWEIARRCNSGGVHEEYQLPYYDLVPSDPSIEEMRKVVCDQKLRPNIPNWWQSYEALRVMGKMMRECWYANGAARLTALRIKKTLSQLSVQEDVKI

[8] = molecular target: Serine/threonine-protein kinase PAK 4 (Homo sapiens, UniProt O96013); assay: Selectivity interaction (KinomeScan (DiscoverX)) EUB0000618a PAK4; details: at 10 µM
Chain of Serine/threonine-protein kinase PAK 4 (O96013 whole entry, looked up): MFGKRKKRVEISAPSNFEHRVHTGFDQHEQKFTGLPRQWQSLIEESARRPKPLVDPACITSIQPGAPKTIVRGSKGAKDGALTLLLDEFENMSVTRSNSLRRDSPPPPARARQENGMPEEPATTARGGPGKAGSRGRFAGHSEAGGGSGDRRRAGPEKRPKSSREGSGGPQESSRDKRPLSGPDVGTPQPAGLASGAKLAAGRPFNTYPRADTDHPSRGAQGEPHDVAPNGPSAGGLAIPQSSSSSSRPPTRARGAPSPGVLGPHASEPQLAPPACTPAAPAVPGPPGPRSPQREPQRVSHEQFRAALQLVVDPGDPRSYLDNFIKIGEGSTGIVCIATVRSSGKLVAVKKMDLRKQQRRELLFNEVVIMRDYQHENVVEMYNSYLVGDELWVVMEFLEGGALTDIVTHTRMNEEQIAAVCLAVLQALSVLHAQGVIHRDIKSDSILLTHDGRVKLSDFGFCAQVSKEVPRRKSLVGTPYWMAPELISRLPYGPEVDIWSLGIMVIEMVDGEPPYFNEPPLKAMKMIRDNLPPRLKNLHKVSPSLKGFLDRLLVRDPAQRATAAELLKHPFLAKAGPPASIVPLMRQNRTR

[9] = molecular target: Dual specificity tyrosine-phosphorylation-regulated kinase 1A (Homo sapiens, UniProt Q13627); assay: Selectivity interaction (KinomeScan (DiscoverX)) EUB0000092b DYRK1A; details: at 10 µM

Chain of Histone-lysine N-methyltransferase 2A (Homo sapiens) (Q03164 1-2718 limits assumed): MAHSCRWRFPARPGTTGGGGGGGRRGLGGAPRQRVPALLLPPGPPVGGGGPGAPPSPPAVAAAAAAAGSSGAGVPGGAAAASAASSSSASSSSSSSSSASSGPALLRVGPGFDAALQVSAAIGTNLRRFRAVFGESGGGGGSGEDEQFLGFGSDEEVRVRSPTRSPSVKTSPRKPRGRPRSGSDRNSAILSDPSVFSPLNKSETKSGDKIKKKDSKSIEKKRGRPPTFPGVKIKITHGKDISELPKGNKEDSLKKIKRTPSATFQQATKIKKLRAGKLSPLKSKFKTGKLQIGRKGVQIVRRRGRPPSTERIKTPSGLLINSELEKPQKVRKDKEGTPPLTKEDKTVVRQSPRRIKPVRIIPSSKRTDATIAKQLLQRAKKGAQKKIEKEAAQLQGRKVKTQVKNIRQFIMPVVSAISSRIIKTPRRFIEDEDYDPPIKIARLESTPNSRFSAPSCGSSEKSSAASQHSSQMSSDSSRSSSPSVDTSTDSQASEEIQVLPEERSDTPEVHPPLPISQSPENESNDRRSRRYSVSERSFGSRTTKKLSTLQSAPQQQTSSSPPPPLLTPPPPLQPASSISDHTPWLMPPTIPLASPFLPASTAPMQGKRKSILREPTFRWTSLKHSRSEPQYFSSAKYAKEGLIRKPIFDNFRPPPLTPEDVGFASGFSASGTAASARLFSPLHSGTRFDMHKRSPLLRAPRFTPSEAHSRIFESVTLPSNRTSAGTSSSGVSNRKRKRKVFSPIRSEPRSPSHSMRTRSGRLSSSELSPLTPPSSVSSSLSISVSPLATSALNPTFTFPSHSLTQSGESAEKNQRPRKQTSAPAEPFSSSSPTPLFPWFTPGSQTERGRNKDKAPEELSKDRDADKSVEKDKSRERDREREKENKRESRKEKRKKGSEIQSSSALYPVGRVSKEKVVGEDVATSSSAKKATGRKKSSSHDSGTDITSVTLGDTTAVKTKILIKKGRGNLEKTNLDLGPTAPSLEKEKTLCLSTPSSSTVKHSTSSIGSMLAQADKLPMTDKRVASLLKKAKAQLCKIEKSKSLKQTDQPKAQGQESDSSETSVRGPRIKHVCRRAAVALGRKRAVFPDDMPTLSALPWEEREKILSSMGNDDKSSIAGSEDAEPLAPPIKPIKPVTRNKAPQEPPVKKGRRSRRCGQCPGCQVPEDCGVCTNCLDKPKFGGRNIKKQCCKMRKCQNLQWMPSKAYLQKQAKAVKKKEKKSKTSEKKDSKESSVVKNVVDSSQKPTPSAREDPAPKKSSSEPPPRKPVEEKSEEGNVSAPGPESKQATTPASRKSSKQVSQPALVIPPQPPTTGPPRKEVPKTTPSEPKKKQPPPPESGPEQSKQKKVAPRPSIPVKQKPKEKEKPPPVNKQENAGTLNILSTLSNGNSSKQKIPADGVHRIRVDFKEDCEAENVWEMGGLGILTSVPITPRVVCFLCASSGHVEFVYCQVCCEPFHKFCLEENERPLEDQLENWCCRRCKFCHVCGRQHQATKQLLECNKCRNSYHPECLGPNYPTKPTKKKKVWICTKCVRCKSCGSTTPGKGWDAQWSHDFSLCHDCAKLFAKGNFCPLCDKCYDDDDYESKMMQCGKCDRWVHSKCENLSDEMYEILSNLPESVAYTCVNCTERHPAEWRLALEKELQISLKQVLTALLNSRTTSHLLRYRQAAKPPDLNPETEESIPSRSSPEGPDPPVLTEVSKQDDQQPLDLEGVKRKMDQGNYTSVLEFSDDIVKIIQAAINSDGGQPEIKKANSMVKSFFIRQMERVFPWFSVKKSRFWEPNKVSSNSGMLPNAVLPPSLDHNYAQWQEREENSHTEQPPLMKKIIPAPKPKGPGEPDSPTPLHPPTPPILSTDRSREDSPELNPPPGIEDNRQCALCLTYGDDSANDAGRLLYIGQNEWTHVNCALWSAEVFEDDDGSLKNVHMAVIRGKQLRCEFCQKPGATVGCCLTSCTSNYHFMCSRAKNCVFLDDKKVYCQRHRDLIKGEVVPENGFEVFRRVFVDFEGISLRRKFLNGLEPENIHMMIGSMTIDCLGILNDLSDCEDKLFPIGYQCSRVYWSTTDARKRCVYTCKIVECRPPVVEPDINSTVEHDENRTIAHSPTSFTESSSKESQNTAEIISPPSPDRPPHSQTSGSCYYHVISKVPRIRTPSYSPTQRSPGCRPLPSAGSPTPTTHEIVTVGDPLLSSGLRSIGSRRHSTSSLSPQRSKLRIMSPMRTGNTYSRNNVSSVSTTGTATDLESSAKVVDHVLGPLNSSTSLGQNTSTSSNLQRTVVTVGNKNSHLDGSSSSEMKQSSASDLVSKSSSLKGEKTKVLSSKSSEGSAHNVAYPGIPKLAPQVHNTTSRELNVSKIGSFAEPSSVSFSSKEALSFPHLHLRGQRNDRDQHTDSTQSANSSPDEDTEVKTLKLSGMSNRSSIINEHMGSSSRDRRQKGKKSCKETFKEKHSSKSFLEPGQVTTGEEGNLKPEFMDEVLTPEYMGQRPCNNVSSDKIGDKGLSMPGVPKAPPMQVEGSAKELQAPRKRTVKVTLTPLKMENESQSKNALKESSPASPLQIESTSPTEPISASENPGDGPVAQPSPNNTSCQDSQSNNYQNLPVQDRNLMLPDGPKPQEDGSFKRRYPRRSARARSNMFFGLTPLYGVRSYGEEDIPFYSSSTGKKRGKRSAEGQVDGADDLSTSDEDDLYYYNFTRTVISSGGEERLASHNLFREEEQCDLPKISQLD
Chain of Histone-lysine N-methyltransferase 2A (Homo sapiens) (Q03164 2719-3969 limits assumed): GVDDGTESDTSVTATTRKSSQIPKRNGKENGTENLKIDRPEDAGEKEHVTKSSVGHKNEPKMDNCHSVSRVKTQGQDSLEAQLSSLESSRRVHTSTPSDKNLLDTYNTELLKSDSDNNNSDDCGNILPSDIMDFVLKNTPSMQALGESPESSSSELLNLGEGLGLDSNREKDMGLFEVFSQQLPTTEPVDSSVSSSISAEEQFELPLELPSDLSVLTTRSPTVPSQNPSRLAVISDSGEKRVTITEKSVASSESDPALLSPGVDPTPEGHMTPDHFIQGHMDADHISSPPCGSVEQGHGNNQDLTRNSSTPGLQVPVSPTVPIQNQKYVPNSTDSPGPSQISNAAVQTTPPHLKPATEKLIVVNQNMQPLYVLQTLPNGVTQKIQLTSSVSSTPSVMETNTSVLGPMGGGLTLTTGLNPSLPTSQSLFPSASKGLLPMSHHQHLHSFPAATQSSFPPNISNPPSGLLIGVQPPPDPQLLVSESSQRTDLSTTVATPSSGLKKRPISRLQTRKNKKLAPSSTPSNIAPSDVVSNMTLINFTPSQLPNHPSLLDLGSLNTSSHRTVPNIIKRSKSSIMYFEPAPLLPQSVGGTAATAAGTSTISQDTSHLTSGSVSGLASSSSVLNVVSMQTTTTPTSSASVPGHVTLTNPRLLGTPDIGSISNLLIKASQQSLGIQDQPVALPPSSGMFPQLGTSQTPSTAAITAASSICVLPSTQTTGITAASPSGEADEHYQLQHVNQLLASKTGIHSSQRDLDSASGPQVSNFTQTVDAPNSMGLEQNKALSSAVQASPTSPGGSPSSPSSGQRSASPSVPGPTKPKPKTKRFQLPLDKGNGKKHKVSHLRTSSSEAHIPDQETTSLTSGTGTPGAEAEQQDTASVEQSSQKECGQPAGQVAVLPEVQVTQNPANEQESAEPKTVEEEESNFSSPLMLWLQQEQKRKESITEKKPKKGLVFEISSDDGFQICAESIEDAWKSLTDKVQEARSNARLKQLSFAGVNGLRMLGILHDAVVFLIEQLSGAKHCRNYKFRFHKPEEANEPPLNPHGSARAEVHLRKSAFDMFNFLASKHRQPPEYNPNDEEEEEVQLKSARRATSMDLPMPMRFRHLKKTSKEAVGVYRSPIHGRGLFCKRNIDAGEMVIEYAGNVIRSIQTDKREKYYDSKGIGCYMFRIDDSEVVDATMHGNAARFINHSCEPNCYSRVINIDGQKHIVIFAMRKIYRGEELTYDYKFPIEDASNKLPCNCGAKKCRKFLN

## CN(C)CCCOc1ccc(-c2cc(NCCCn3cccn3)nc(S(C)(=O)=O)n2)cc1
[1]
  dTM: < 2 K

## COc1cc(N(C)c2ccnc3ccc(C(F)(F)F)cc23)cc(OC)c1OC
[2]
  % binding: 60%
[3]
  % binding: 88%

## Cc1cc([C@@H](C)Nc2ccccc2C(=O)O)c2nc(N3CCOCC3)cc(=O)n2c1 [AZD-6482]
[4]
  % of control: 57%
[5]
  % of control: 98%

## N#Cc1cccc(-c2c[nH]c3ncnc(N4CCOCC4)c23)c1
[6]
  % of control: 100%

## CNC(=O)Nc1ccc(-c2nc(N3CC4CCC(C3)O4)c3cnn(C4CCC5(CC4)OCCO5)c3n2)cc1
[7]
  % of control: 100%

## O[C@H]1CC[C@H](Nc2ncc3nc(Nc4c(F)cc(F)cc4F)n([C@H]4CCOC4)c3n2)CC1
[8]
  % of control: 100%

## CCC(=O)N1CCN(c2ccc(-n3c(=O)ccc4cnc5ccc(-c6cnc7ccccc7c6)cc5c43)cc2C(F)(F)F)CC1
[9]
  % of control: 71%
